Assay [1] concerns Epidermal growth factor receptor (Homo sapiens), P00533 [L858R,T790M]. Put plainly: Residual activity of EGFR T790M/L858R at 1 uM by microplate scintillation counting.
Assay [2] addresses Mitogen-activated protein kinase 9 (Homo sapiens) (UniProt P45984). Put plainly: Residual activity of JNK2 at 1 uM by microplate scintillation counting.
Assay [3] deals with Serine/threonine-protein kinase PAK 4 (Homo sapiens) (UniProt O96013). Put plainly: Residual activity of PAK4 at 1 uM by microplate scintillation counting.
Serine/threonine-protein kinase PAK 4 (Homo sapiens), sequence (O96013 whole entry, looked up): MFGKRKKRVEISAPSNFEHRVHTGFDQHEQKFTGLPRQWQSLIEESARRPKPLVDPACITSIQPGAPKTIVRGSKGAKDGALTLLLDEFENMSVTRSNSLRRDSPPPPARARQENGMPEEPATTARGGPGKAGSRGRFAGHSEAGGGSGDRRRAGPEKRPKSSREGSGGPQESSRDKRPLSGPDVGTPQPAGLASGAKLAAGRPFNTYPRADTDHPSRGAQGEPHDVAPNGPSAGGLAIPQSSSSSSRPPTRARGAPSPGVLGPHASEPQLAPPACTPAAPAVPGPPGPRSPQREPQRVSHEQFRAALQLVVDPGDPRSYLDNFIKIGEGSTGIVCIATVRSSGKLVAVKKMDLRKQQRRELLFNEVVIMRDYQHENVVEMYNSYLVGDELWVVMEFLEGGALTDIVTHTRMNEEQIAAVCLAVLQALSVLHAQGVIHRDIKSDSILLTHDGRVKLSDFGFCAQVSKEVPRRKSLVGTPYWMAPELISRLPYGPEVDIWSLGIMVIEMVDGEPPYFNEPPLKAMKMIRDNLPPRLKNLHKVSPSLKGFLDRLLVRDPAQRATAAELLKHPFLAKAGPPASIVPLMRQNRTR
Assay [4] deals with Calcium/calmodulin-dependent protein kinase type II subunit delta (Homo sapiens) (UniProt Q13557). The assay can be described thus: Residual activity of CAMK2D at 10 uM by microplate scintillation counting.
Calcium/calmodulin-dependent protein kinase type II subunit delta (Homo sapiens), sequence (Q13557 whole entry): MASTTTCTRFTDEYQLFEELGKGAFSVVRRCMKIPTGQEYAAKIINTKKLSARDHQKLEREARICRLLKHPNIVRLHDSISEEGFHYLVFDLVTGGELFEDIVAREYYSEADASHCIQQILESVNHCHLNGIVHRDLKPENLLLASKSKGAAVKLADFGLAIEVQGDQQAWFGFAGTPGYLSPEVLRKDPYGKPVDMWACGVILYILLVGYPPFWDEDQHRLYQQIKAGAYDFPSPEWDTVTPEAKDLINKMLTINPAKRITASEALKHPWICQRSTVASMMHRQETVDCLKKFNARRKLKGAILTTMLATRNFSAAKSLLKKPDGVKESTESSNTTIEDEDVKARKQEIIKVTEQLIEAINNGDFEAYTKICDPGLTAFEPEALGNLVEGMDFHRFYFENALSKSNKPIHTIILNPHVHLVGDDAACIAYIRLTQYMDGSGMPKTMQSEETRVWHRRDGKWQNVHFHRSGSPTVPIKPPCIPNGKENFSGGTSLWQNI
Assay [5] has as its target Ephrin type-A receptor 2 (Homo sapiens) (UniProt P29317). Put plainly: Residual activity of EPHA2 at 0.1 uM by microplate scintillation counting.
Assay [6] concerns the target T1, Phosphorylase b kinase gamma catalytic chain, liver/testis isoform (Homo sapiens) (UniProt P15735).
T1 sequence (whole entry): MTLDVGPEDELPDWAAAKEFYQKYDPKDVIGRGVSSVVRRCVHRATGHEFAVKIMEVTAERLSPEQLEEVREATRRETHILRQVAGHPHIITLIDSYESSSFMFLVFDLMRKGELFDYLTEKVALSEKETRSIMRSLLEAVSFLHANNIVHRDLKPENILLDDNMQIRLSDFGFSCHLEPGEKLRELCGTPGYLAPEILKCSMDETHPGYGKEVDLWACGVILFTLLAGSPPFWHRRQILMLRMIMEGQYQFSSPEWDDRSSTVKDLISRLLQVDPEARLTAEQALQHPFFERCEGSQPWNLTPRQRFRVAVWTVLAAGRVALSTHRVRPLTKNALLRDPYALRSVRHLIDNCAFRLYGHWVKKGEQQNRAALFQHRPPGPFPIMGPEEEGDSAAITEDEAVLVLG
Put plainly: Residual activity of PHKG2 at 10 uM by microplate scintillation counting.

Assay [7] concerns the target CDK4/Cyclin D3 (Homo sapiens) (UniProt P11802+P30281). Put plainly: Residual activity of CDK4/Cyclin D3 at 1 uM by microplate scintillation counting. Format: protein-complex assay.
For assay [8], the target named is T2, Cytoplasmic tyrosine-protein kinase BMX (Homo sapiens) (UniProt P51813).
T2 sequence (whole entry): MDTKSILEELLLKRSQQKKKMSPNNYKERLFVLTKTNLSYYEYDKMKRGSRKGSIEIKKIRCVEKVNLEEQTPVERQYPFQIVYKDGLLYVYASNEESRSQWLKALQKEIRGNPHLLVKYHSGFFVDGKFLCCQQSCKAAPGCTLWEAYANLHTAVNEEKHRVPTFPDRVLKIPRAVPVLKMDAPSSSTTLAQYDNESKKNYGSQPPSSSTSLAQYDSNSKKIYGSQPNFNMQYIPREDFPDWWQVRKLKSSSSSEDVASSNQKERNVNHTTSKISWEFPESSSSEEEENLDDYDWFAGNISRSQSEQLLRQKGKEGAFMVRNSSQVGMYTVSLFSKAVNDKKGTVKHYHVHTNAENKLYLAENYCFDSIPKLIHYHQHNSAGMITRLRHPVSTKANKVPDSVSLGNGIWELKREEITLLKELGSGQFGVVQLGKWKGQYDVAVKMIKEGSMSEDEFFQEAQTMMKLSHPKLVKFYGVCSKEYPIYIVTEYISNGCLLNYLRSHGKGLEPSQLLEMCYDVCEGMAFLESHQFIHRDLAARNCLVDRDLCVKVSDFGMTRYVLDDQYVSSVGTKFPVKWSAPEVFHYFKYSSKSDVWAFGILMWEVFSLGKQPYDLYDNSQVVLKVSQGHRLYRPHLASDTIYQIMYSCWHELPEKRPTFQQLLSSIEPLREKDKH
The assay can be described thus: Residual activity of BMX at 0.1 uM by microplate scintillation counting.

Assay [9] has as its target T1, Phosphorylase b kinase gamma catalytic chain, liver/testis isoform (Homo sapiens). Put plainly: Residual activity of PHKG2 at 0.1 uM by microplate scintillation counting.
Assay [10] deals with Protein kinase C gamma type (Homo sapiens) (UniProt P05129). The assay can be described thus: Residual activity of PKCgamma at 0.1 uM by microplate scintillation counting.
In assay [11] the target is Serine/threonine-protein kinase SIK2 (Homo sapiens) (UniProt Q9H0K1). The assay can be described thus: Residual activity of SNF1LK2 at 10 uM by microplate scintillation counting.
Serine/threonine-protein kinase SIK2 (Homo sapiens), sequence (Q9H0K1 whole entry, looked up): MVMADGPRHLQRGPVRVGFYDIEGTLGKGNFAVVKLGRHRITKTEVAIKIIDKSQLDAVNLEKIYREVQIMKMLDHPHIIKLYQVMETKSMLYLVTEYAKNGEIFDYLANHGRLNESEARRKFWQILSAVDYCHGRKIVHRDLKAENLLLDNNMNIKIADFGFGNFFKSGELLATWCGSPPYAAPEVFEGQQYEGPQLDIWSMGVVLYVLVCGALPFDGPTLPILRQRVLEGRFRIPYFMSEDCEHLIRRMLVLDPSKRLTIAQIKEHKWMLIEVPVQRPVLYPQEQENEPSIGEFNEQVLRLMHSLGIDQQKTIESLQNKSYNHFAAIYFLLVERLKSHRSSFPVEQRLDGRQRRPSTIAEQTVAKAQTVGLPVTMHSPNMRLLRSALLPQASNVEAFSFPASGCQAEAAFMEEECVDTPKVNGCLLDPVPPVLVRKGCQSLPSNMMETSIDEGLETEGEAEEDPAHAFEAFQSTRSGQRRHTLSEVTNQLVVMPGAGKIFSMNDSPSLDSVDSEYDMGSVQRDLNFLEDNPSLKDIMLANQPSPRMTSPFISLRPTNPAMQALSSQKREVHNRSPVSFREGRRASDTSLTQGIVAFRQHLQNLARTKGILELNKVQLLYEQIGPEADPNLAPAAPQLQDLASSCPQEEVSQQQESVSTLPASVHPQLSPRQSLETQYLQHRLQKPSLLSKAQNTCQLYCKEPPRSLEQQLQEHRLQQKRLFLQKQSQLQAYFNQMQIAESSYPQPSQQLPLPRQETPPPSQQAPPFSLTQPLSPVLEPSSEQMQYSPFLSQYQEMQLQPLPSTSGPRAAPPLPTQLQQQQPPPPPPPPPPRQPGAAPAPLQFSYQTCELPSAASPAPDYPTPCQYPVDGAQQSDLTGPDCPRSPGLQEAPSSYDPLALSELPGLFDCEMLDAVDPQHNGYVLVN
Assay [12] has as its target Serine/threonine-protein kinase PLK2 (Homo sapiens) (UniProt Q9NYY3). Put plainly: Residual activity of SNK at 10 uM by microplate scintillation counting.
The target of assay [13] is T3, Tyrosine-protein kinase receptor TYRO3 (Homo sapiens) (UniProt Q06418).
T3 sequence (whole entry): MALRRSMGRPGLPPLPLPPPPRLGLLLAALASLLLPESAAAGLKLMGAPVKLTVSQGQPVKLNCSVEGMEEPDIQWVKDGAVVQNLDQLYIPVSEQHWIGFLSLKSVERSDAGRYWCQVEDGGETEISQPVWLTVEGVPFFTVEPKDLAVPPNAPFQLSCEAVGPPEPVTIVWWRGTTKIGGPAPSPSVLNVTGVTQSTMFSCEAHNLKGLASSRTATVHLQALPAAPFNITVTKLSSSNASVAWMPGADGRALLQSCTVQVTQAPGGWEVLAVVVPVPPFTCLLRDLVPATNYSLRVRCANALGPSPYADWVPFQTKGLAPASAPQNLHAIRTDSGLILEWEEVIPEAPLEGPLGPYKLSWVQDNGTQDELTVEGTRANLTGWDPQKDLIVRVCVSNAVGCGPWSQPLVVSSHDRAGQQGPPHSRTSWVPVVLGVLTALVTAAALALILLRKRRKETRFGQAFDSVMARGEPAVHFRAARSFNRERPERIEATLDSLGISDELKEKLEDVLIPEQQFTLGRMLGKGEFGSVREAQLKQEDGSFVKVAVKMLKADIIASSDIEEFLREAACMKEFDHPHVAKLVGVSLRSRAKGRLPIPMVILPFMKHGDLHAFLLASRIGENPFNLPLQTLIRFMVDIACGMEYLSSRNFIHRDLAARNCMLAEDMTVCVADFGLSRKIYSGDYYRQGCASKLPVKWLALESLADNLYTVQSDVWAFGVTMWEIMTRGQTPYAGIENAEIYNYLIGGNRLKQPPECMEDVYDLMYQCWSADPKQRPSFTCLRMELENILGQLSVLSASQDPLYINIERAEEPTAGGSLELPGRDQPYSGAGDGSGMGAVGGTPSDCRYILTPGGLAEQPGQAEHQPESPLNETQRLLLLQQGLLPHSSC
Put plainly: Residual activity of TYRO3 at 10 uM by microplate scintillation counting.

Serine/threonine-protein kinase PLK2 (Homo sapiens), sequence (Q9NYY3 whole entry, looked up): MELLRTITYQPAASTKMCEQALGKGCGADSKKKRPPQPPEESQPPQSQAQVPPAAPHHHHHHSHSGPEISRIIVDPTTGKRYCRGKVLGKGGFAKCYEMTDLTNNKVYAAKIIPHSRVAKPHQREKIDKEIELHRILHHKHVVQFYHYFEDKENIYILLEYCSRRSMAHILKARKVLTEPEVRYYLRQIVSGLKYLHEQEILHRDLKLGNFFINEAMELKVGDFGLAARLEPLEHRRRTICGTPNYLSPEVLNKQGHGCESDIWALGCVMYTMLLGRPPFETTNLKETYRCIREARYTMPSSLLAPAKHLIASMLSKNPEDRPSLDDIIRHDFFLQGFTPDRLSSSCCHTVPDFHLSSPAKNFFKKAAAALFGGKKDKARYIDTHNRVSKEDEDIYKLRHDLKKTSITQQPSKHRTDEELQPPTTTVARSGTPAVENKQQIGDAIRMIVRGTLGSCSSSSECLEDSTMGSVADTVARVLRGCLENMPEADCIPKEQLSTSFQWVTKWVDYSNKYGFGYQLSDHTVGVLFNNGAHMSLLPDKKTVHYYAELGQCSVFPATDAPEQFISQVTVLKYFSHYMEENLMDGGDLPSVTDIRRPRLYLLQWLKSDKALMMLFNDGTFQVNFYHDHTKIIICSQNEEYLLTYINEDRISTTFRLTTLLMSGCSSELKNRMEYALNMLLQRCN
Ephrin type-A receptor 2 (Homo sapiens), sequence (P29317 whole entry, canonical isoform): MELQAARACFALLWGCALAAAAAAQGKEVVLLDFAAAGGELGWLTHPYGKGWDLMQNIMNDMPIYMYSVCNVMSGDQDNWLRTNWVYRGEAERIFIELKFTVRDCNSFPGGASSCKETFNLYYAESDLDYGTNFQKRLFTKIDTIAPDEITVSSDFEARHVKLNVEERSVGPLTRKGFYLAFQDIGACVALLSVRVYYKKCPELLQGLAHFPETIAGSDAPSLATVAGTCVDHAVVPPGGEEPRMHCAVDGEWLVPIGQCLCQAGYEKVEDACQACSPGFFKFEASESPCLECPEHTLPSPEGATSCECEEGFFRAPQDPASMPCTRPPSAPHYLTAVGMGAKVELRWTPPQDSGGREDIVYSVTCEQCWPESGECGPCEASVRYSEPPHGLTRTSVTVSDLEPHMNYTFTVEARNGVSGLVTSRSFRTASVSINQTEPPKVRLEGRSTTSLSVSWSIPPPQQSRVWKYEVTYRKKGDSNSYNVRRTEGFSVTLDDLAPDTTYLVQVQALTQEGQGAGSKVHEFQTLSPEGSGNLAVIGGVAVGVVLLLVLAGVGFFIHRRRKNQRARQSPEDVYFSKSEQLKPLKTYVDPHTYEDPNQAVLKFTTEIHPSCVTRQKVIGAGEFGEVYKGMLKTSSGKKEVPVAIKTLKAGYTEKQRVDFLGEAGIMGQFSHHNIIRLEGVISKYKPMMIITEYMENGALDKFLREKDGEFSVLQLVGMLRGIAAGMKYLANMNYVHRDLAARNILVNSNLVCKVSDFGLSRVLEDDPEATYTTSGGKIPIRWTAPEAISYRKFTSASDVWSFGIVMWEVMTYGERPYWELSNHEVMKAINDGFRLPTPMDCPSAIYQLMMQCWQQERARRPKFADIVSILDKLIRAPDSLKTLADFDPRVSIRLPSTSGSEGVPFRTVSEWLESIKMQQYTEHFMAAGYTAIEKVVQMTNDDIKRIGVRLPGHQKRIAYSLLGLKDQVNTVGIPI
Mitogen-activated protein kinase 9 (Homo sapiens), sequence (P45984 whole entry, looked up): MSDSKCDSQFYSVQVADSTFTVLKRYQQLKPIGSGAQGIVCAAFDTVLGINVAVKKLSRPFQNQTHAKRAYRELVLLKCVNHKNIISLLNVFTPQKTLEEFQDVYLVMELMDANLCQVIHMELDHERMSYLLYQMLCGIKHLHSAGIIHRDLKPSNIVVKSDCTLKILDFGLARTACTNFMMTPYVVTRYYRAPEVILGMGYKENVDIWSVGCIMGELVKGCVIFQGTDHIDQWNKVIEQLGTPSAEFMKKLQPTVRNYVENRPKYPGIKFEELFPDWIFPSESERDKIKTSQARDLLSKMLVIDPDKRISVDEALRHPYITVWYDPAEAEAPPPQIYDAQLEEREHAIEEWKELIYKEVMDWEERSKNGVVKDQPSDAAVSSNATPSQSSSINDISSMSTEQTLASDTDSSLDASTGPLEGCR

On to `COc1cc2c(Oc3ccc(-c4nc5ccccc5s4)cc3)ncnc2cc1OCCCN1CCCC1`, for which the residual activity in assay [1] is 100%; in assay [2], 90%; in [3] it was 112%; in assay [4], 13%; in assay [5], 76%; in assay [6], 93%. The residual activity in assay [7] was 105%; in assay [8], 94%; in [9], 83%; in assay [10] it was 99%; in assay [11], 107%; in [12] it was 120%. Also, in assay [13], the residual activity is 120%.
As for `COc1cc2c(Oc3ccc(-c4nc5ccccc5s4)cc3F)ncnc2cc1OCCCN1CCN(C)CC1`, the residual activity was 99% in assay [1]; 119% in [2]; 99% in assay [3]; 44% in [4]; 94% in assay [5]; 88% in [6]. In addition, the residual activity was 86% in assay [7]; 116% in assay [8]; 53% in assay [9]; 101% in [10]; 241% in assay [11]; 99% in [12]. In assay [13], the residual activity was 17%.
As to `COc1cc2c(Oc3ccc(-c4nc5ccccc5s4)cc3)ncnc2cc1OCCCN1CCN(C)CC1`, the residual activity in assay [1] came out at 103%; in assay [2], 121%; in assay [3], 105%; in [4], 28%; in assay [5], 99%; in assay [6], 103%. Moreover, the residual activity turned out to be 95% in [7]; 117% in [8]; 86% in [9]; 120% in assay [10]; 141% in [11]; 108% in assay [12]. The residual activity in assay [13] was 84%.

Source of the values: ChEMBL document CHEMBL1152560, “Substituted 2-arylbenzothiazoles as kinase inhibitors: hit-to-lead optimization” (Bioorg Med Chem, 2009).
